Data set [1] has as its system REH. Put plainly: Antiproliferative activity against human REH cells after 48 hrs by MTT assay. Type of data set: functional, cell-based. A general note: Tetrazolium assays rely on reduction of a dye to a coloured formazan, in cell work by metabolically active cells.
Data set [2] is described as follows: Antiproliferative activity against human NALM6 cells after 48 hrs by MTT assay. In kind it is functional, cell-based. As to conditions: NALM-6, 48 h.
Data set [3] deals with Ehrlich. Put plainly: Antitumor activity against mouse EAC cells allografted in mouse assessed as reduction of tumor volume at 25 mg/kg measured up to 14 days. Type of data set: functional, organism-based.
Data set [4] has as its system Mus musculus. In words: Toxicity in mouse EAC allografted mouse assessed as effect on organs function at 25 mg/kg. Type of data set: organism-based. The settings on record: in vivo.
For data set [5], the system named is Mus musculus. Put plainly: Toxicity in mouse EAC allografted mouse assessed as effect on morphology and cellular construction of organs at 25 mg/kg. As to conditions: in vivo. In kind it is organism-based.
The test system of data set [6] is REH. Put plainly: Induction of apoptosis in human REH cells assessed as decrease in mitochondrial membrane potential using green fluorescence of JC-1 dye after 48 hrs. Type of data set: functional, cell-based.
Data set [7] relates to REH. Put plainly: Cell cycle arrest in human REH cells assessed as accumulation at sub-G1 phase after 48 hrs using propidium iodide staining. In kind it is functional, cell-based.
The test system of data set [8] is Ehrlich. Put plainly: Antitumor activity against mouse EAC cells allografted in mouse assessed as necrosis and innumerable number of apoptotic cells at 25 mg/kg measured up to 14 days. In kind it is functional, organism-based.
A short description of data set [9]: Antiproliferative activity against human HEK293T cells after 48 hrs by MTT assay. In kind it is cell-based. As to conditions: HEK-293T.

Activity calls are given as the source filed them. The rule behind the calls is not given here. Bounds are passed on as bounds.

Turning to `COc1ccc(N2C(=O)CSC2c2cccnc2)cc1OC` (configuration not stated), the IC50 (in the data set on REH [1]; in data set [2]) was above 100 µM throughout.

As to `CC1(c2ccccc2)SCC(=O)N1c1cc(Cl)cc(Cl)c1` (configuration not stated), the IC50 (in the data set with REH [1]; in data set [2]) was above 100 µM in each case.

Regarding `COc1cccc(N2C(=O)CSC2c2ccc(F)cc2)c1` (configuration not stated), the results for the half-maximal inhibitory concentration (IC50) (in the data set with REH [1]; in data set [2]) were above 100 µM and 49.8 µM, respectively.

For `COc1ccc(N2C(=O)CSC2c2ccccc2[N+](=O)[O-])cc1` (configuration not stated), the IC50 (as a rule, the concentration that gives 50% inhibition) with REH [1] is above 100 µM; in [2], 93.4 µM.

`CC(C)(C)OC(=O)N1CCC(C2SCC(=O)N2c2ccc(N3CCN(C(=O)OC(C)(C)C)CC3)cn2)CC1` (configuration not stated): the figures for the IC50 (with REH [1]; in [2]) were above 100 µM and 82.9 µM, respectively.

On to `CN(C)c1ccc(C2SCC(=O)N2c2ccc(Br)cc2)cc1` (configuration not stated), for which the result in the data set with Ehrlich [3] and in the data set with Ehrlich [8] was Active. Besides, the Activity entry is “Non-toxic” in the data set with Mus musculus [4], “Non-toxic” in the data set with Mus musculus [5], “Dose-dependent effect” with REH [6] and “Dose-dependent effect” with REH [7]. Moreover, the figures for the half-maximal inhibitory concentration (IC50) (in the data set with REH [1]; in data set [2]; in data set [9]) were 11.9 µM, 13.2 µM and above 80 µM, respectively.

Consider `COc1ccc(N2C(=O)CSC2c2ccc(O)cc2)cc1OC` (configuration not stated), for which the figures for the half-inhibitory concentration (IC50) (in the data set with REH [1]; in [2]) were 69.4 µM and above 100 µM, respectively.

As for `Cc1ccccc1N1C(=O)CSC1c1ccc(C(F)(F)F)cc1` (configuration not stated), the half-maximal inhibitory concentration (IC50) in the data set with REH [1] is 29.6 µM; in [2] it was 42.6 µM.

On to `O=C1CSC2(CCCC2)N1c1ncccn1`, for which the half-maximal inhibitory concentration (IC50) (with REH [1]; in [2]) was above 100 µM throughout.

As to `O=C1CSC2(CCCCC2)N1c1ccc(OC(F)F)cc1`, the half-inhibitory concentration (IC50) was 41.4 µM with REH [1] and above 100 µM in data set [2].

For the origin of these results see ChEMBL document CHEMBL3603787, “Antiproliferative and tumor inhibitory studies of 2,3 disubstituted 4-thiazolidinone derivatives” (Bioorg Med Chem Lett, 2015).
